What was measured:
[1] = test system: HaCaT cells; test: m6A methylation level of drug-treated HaCaT keratinocytes by nanopore sequencing; format: cell-based, human; conditions: 50 nM drug, 24 hours, vs blank control group
Method: 1*10^8 HaCaT cells were seeded in culture dishes, into which 50 nM drugs (including sorafenib, capecitabine, docetaxel, and osimertinib) were added, respectively. The cells were cultured in an incubator containing 5% CO2 at 37°C for 24 hours and washed with PBS after culture media were removed. Centrifugation was performed, the supernatant was discarded, and then, 400 µL of an RLT cell lysis buffer (QIAGEN, Cat.#79216) was added. A portion of samples were selected, into which 400 µL of 70% ethanol was added. The mixture was evenly stirred and then transferred to an RNeasy mini column, and RNA was extracted using an RNeasy mini kit (QIAGEN, Cat.#74104). 2 µL of an RNA sample was selected and dissolved in 98 µL of a 10 mM Tris-HCl buffer solution, and the absorbance at 260 nm was measured using a Nanodrop (Thermo Fisher Scientific) to determine the RNA concentration.
40 µg of an RNA sample was selected for enrichment of mRNA (PolyA+RNA) using an NEBNext Poly(A) mRNA magnetic isolation module (NEB, Cat.#E7490), and then, a 3' end of the above enriched mRNA (PolyA+RNA) molecule was ligated with reverse transcription adapter RTA using a direct RNA sequencing kit (Oxford Nanopore Technologies, Cat.#SQK-RNA002). A reverse transcription reaction was performed with the mRNA (PolyA+RNA) molecule as a template to synthesize a complementary strand, a terminal end of the reverse transcription adapter RTA was ligated with a sequencing adapter (RNA adapter) to form a final sequencing library, and quantitative detection was performed using a Qubit™ dsDNA HS assay kit (Invitrogen, Cat.#LOT2133187).
After quality inspection of the library, the prepared sequencing library was loaded onto a PromethION flow cell chip (Oxford Nanopore Technologies, Cat.#FLO-MIN106D), and placed in a PromethION sequencer (Oxford Nanopore Technologies) for sequencing by selecting a matched sequencing mode. Basecalling was performed on sequencing data through guppy, and m6A methylation analysis was performed on original fast5 data.

[2] = test system: HaCaT cells; test: m6A methylation level of human keratinocytes (EpiQuik m6A RNA methylation quantification kit); format: cell-based; conditions: 50 nM drug alone, 24 hours, relative to control group 1 (DMSO)
Method: HaCaT cells were cultured in DMEM culture medium containing 10% fetal bovine serum, 100 U/mL penicillin, and 100 µg/mL streptomycin. Culture dishes were placed in an incubator containing 5% CO2 for culture at 37°C for 24 hours. An equal volume of DMSO was added in control group 1, 50 nM sorafenib, capecitabine, docetaxel, and osimertinib were respectively added in control groups A, B, C, and D, and 400 nM test compounds or nicotinamide were respectively added in sample groups A1, A2, B1, B2, C1, C2, D1, and D2 after the addition of 50 nM corresponding compounds. The cells were continuously cultured for 24 hours, washed with PBS, and then collected by high-speed centrifugation. Total RNA was extracted using Trizol reagent (Sigma Aldrich), and RNA m6A methylation of a sample was quantitatively detected using an EpiQuik m6A RNA methylation quantification kit. The concentrations of positive control samples for a standard curve were 0.01 ng/µl, 0.02 ng/µl, 0.05 ng/µl, 0.1 ng/µl, 0.2 ng/µl, and 0.5 ng/µl. The absorbance at 450 nm was read using a microplate reader (Tecan GENios). A quantitative calculation formula for m6A is as follows: m6A(ng) = (absorbanceofsamplewell−absorbanceofbackroundwell)/slope of standard curve [formula] m6A(%) = m6A(ng)/RNA amount of sample(ng)*100%. [formula]

[3] = test system: chemotherapeutic drug-induced mouse model with hand-foot syndrome; test: chemotherapeutic drug-induced mouse model with hand-foot syndrome; format: in vivo, ICR mice; conditions: for swelling of the hind limb toes of the mice / epidermal layer and the stratum corneum in the skin tissues of the hind limb toes: modeling drug oral; for swelling of the hind limb toes of the mice: 14 days: capecitabine 200 mg/kg, docetaxel 25 mg/kg; for epidermal layer and the stratum corneum in the skin tissues of the hind limb toes: 14 days: capecitabine, docetaxel; for skin of the hind limb toes of the mice (appearance): modeling for 14 days: capecitabine 200 mg/kg, docetaxel 25 mg/kg oral gavage once daily
Description: After adaptive feeding for 7 days, SPF-grade ICR mice (male, 5-6 weeks old, with a body weight of approximately 35 g) were randomly divided into groups, including a blank control group (6 mice), a capecitabine modeling group (6 mice), a docetaxel modeling group (6 mice), a capecitabine + compound of formula (I) group (6 mice), a docetaxel + compound of formula (I) group (6 mice), a capecitabine + nicotinamide group (6 mice), and a docetaxel + nicotinamide group (6 mice). The groups were respectively administered corresponding modeling drugs by oral gavage (capecitabine at 200 mg/kg and docetaxel at 25 mg/kg) once daily; and the blank control group was administered an equivalent volume of normal saline. After administration with the chemotherapeutic drugs for 2 weeks, the ointments containing the compound of formula (I) (at a compound content of 3%) used in Example 10 were respectively applied topically in the groups, or nicotinamide was orally administered (100 mg/kg) once daily continuously for 16 days.
Measurement of the degree of swelling of toes: The degree of swelling of hind limb toes of the mice was measured using a toe swelling tester (KW-7C, Nanjing Calvin Biotechnology Co., Ltd.) before administration with the modeling drugs, after administration with the modeling drugs for 2 weeks, and before sacrifice, respectively. Before measurement, ankle joints of hind feet of the mice were marked at same positions before administration, after administration for 2 weeks, and before sacrifice. During measurement, water was properly located at the same level as the marked positions, and numerical values were recorded after becoming stable.
Pathological staining of skin tissues: Skin tissue samples were selected from hind limb toes of the mice and placed in 4% paraformaldehyde for fixation at room temperature for 4 hours. Then, the tissues were taken out and rinsed with running water for several hours. The samples were subjected to dehydration treatment with 70%, 80%, and 90% ethanol solutions, followed by treatment with a mixed solution of equal amounts of absolute alcohol and xylene for 15 minutes, and then permeabilized twice with a xylene solution for 15 minutes each time until the samples became transparent. The samples were placed in a mixture of half xylene and half paraffin for soaking for 15 minutes, and then, paraffin I and paraffin II were added for wax penetration for one hour, respectively. After embedding with paraffin, the samples were sectioned, baked, dewaxed, and hydrated. Then, the hydrated sections were placed in a hematoxylin solution (ZSGB-BIO, article No. 23041001) for staining for 3 minutes, and a differentiation solution of hydrochloric acid in ethanol was added for differentiation for 15 seconds. After rinsing with water, a Scott bluing solution (Servicebio, article No. 20230801) was added for bluing for 15 seconds. After rinsing with running water, the sections were stained with an eosin solution (Solarbio, article No. 33535) for 3 minutes, rinsed with running water, dehydrated, permeabilized, sealed, and inspected under a microscope.
Immunohistochemical staining: After baking, dewaxing, and hydration, paraffin sections of skin tissues of hind limb toes of the mice were subjected to antigen retrieval using a 0.2 M citric acid buffer solution (containing 1.534 g of citric acid, 3.1 g of sodium citrate, and 100 mL of distilled water, pH 4.7). Endogenous […] was removed using 3% hydrogen peroxide (Shandong Annjet High-Tech Disinfection Technology Co., Ltd., article No. 20290902), and the sections were incubated at room temperature for 10 minutes and then fully rinsed with a PBS buffer solution (containing 8 g of NaCl, 0.2 g of KCl, 1.44 g of Na2HPO4, and 1 M HCl, pH 7.4). The sections were permeabilized with 0.5% Triton-X-100 (AmyJet Scientific, article No. A-CSH436-100 mL), respectively permeabilized with mouse anti-IL-1β and rabbit IL-8 for 10 minutes, and not permeabilized with rabbit anti-IL-6. […]

[4] = competitive suspension tests of crystal forms (XRPD); format: physicochemical; conditions: isopropanol, isopropyl acetate, and acetonitrile; 5°C, 25°C, 50°C, 3 days
Method: A 2θ scanning angle of the sample was 3°-40°, a scanning step size was 0.02°, and a scanning time per step was 0.12 s/step. An optical tube voltage and a current were 40 kV and 40 mA, respectively. During sample preparation, an appropriate amount of the sample was placed on a sample tray and flattened with a tool such as a glass slide to ensure a smooth and even surface.
Resulting suspensions were suspended at 5°C, 25°C, and 50°C for 3 days, respectively. The resulting suspensions were centrifuged, and solid portions were detected by XRPD.

SMILES | m6A methylation levels of HaCaT cells higher than that of the control group [1] [fold] | m6A fold change [2] [fold] | cytokine IL-8 in the skin tissues of the hind limb toes of the mice ([3]; capecitabine oral 14 days, vs normal control group, p<0.05) | swelling of the hind limb toes of the mice [3] | epidermal layer and the stratum corneum in the skin tissues of the hind limb toes ([3]; vs normal control group) | skin of the hind limb toes of the mice (appearance) ([3]; vs normal control group) | crystal form after competitive suspension slurrying [4] | cytokine IL-6 in the skin tissues of the hind limb toes of the mice ([3]; docetaxel oral 14 days, vs normal control group, p<0.05)
CCCCCOC(=O)Nc1nc(=O)n([C@@H]2O[C@H](C)[C@@H](O)[C@H]2O)cc1F [Capecitabine, capecitabine] | 6.01 | 6.7 | significantly increased | swelling of the hind limb toes of the mice was caused | significantly thickened | obvious erythema, rhagades, and blisters |  | 
NC(=O)[C@H]1CCCc2c1[nH]c1ccc(Cl)cc21 [Crystal form B, (S)-6-chloro-2,3,4,9-tetrahydro-1H-carbazole-carboxamide] |  |  |  |  |  |  | converted into the crystal form F | 
CC(=O)O[C@@]12CO[C@@H]1C[C@H](O)[C@@]1(C)C(=O)[C@H](O)C3=C(C)[C@@H](OC(=O)[C@H](O)[C@@H](NC(=O)OC(C)(C)C)c4ccccc4)C[C@@](O)([C@@H](OC(=O)c4ccccc4)[C@H]21)C3(C)C [Docetaxel, docetaxel] | 3.97 | 5.6 |  | swelling of the hind limb toes of the mice was caused | significantly thickened | obvious erythema, rhagades, and blisters |  | significantly increased

— patent EP4782431A1 (Suzhou Merna Therapeutics Co. Ltd, priority 2023, dated 2025)
